Reference: patent US20250136641A1, “PEPTIDES AND COMPOSITIONS FOR USE IN COSMETICS, FOOD AND MEDICINE” (priority 2022, published 2025)
Ends that are not written are not given here.

Experiments:
[1] = system: inflammation-related genes; assay: Expression of inflammation-related genes (RT-qPCR) in HEKa cells; assay type: cell-based, human; conditions: 0.01 mg/mL peptide, vs untreated basal sample
[2] = system: inflammation-related miRNAs; assay: Expression of inflammation-related miRNAs (RT-qPCR) in HEKa cells; assay type: cell-based, human; conditions: 0.01 mg/mL peptide, 24 h, vs untreated basal sample
IL-8 = IL-8 secretion by HaCaT keratinocytes (ELISA), with or without IFNγ; assay type: cell-based, human
HDFa73 (HDFa from adult) = assay: Telomere length in HDFa cells (qPCR); assay type: cell-based, human; conditions: 48 hours
Nrf2 = assay: Subcellular localization of Nrf2 in HEKa cells (immunofluorescence); assay type: cell-based, human; conditions: 0.01 or 0.05 mg/mL peptide, 24 hours, vs untreated cells
TLR2 = TLR2 levels in human epidermal keratinocytes after IFNγ (ELISA); assay type: cell-based
catalase = assay: Levels or synthesis of catalase enzyme in HEKa cells (ELISA); assay type: cell-based, human; conditions: 24 hours
TRF1 [3] = assay: TRF1 levels in CHA9.3 cells (immunofluorescence); assay type: cell-based; conditions: 0.125 mg/mL peptide, 24-hour incubation, vs DMSO control
TRF1 [4] = assay: TRF1 foci per cell in HEKa cells (immunofluorescence); assay type: cell-based, human; conditions: basal condition, 0.005 mg/mL peptide, vs untreated
53BP1 = assay: DNA damage (53BP1 foci) under oxidative stress in HEKa cells; assay type: cell-based, human; conditions: 100 μM H2O2, 0.01 or 0.05 mg/mL peptide, vs cells treated only with H2O2

Q: What does the source list for GYYELND-NH2 [SEQ ID NO: 2-NH2]?
A: HMOX1 gene expression ([1]; 6 h): upregulation; IRAK3 gene expression ([1]; 6 h): upregulation; TNFAIP3 gene expression ([1]; 6 h): upregulation; TOLLP gene expression ([1]; 6 h): upregulation; CXCL8 gene expression ([1]; 24 h): downregulated; IL1B gene expression ([1]; 24 h): downregulated; IL6 gene expression ([1]; 24 h): downregulated; MMP3 gene expression ([1]; 24 h): downregulated; NFKB1 gene expression ([1]; 24 h): downregulated; NQO1 gene expression ([1]; 24 h): upregulated; TLR2 gene expression ([1]; 24 h): downregulated; TNF gene expression ([1]; 24 h): downregulated; miR-21-5p expression [2]: upregulate; miR-146a-5p expression [2]: upregulate; secretion of IL-8 under inflammatory conditions (IL-8; 48 hours, 0.005, 0.01 or 0.05 mg/mL together with IFNγ at 10 ng/mL, compared to positive control (IFNγ alone)): decrease, in a dose-dependent manner; secretion of IL-8 under basal conditions (IL-8; without IFNγ, all concentrations tested (SEQ ID NO: 2-NH2 0.005, 0.01, 0.05 mg/mL; SEQ ID NO: 3-NH2 0.01, 0.05 mg/mL), vs untreated cells): decreased the secretion of IL-8 in a dose-dependent manner but at a lower degree that under inflammatory conditions; telomeres longer than untreated HDFa73 (HDFa73 (HDFa from adult); 0.005 mg/mL peptide): 17%; telomeres longer than untreated HDFa73 (HDFa73 (HDFa from adult); 0.01 mg/mL peptide): 30%; Nrf2 translocation into the nuclei (Nrf2): Nrf2 translocation from the cytoplasm to the nuclei in a concentration dependent manner; decrease in levels of TLR2 (TLR2; HEKa cells after IFNγ, highest peptide concentration (0.05 mg/mL), 24 hours): 19%; levels of TLR2 (TLR2; HEKa cells, 24 hours 10 ng/mL IFNγ, then 0.01 or 0.05 mg/mL peptide for 24 hours): lower the levels of TLR2 after exposure to IFNγ in a dose dependent-manner; levels of catalase (catalase; HEKa cells, 0.005, 0.01 or 0.05 mg/mL peptide, catalase/total protein vs basal): increase the levels of catalase in a dose-dependent manner; increase in levels of catalase (catalase; HEKa cells, highest concentration (0.05 mg/mL), vs basal): 47%; TRF1 intensity (TRF1 [3]): increase in TRF1; TRF1 foci per cell (TRF1 [4]): increase in TRF1; 53BP1 foci per cell (53BP1): decrease in 53BP1 foci
